Laboratory results: patent US6518423B1, “Benzopiperidine derivatives” (Eisai Co., Ltd., priority 1996, dated 2003)
Structures can show the parent of a compound that is named as a salt. Where two headings read alike, the source gives them in different places.

Legend:
[1] = system: ICAM-1; assay: Effect on the expression of ICAM-1 in human cultured umbilical cord endothelial cells (TNF-stimulated, ELISA); format: cell-based; conditions: 1 ng/ml TNF, expression with TNF = 100%, without TNF = 0%, read-out: IC50 (50% inhibitory concentration of ICAM-1 expression)
Procedure: Effect on the Expression of ICAM-1 in Human Cultured Umbilical Cord Endothelial Cells
Examination was made on the effect on the expression of ICAM-1 which is one of adhesion molecules expressed on the surfaces of cultured endothelia cells. The endotheliall cells were suspended in an MCDB131 medium containing 10% of fetal calf serum and pipetted into a 96-well culture plate (10,000 cells/well). After culturing at 37° C. in the presence of 5% of carbon dioxide for 2 days, 1 ng/ml of a tumor necrosis factor (TNF) and a test compound were added to the 96-well culture plate. After culturing at 37° C. in the presence of 5% of carbon dioxide for 4 hours and then washing with a phosphate buffer once, 0.05% of glutaraldehyde was added thereto. Six minutes thereafter, the plate was washed twice and 1 μg/ml of a mouse antihuman ICAM-1 antibody was added thereto. After allowing to stand for 1 hour, it was washed twice and a peroxidase-labeled sheep antimouse immunoglobulin antibody was added thereto. After allowing to stand for 1 hour, it was washed twice and a color developing substrate for peroxidase (o-phenylenediamine) was added thereto. After allowing to stand at room temperature for 10 minutes, a 1 N solution of sulfuric acid was added thereto. Then the absorbance at 490 nm was measured with the use of an absorptiometer for 96-well plate. The value thus obtained was employed as an indication of the ICAM-1 expression.

[2] = system: Carrageenin-induced Rat Pleurisy; assay: Effect on carrageenin-induced rat pleurisy; format: in vivo; conditions: total cell count in pleural exudate 5 hours after carrageenin, dose 10 mg/kg orally 30 minutes before carrageenin; for inhibition in vivo at 10 mg/kg: Rattus norvegicus, po, 5 h, read-out: Inhibitory ratio (%); for Inhibitory ratio (%): 10 mg/kg
Procedure: Effect on Carrageenin-induced Rat Pleurisy
200 μl of a carrageenin solution (10 mg/ml in physiological saline) was intrathoracically injected into rats. Five hours thereafter, blood of the animals was collected from the abdominal aorta under etherization so as to induce death from blood loss. The exudate was taken up from the thoracic cavity and weighed with a single-pan balance. Further, the exudate was diluted with Turk's solution and the cells were counted by using a counting chamber. Next the total cell count was calculated by multiplying the cell count by the exudate volume. Thus the inhibitory ratio was calculated by taking the total cell count with the administration of carrageenin as 100% and that with the administration of physiological saline as 0%. Each test compound was suspended in a 0.5% solution of methylcellulose and orally administered at a dose of 5 ml/kg 30 minutes before the injection of carrageenin.

[3] = Homo sapiens, Endothelial cell, 4 h

Structure (SMILES) | melting point | inhibition in vivo at 10 mg/kg [2] | IC50 [1, 3] | also measured
NCc1ncnc2c1ncn2Cc1ccc2c(c1)Nc1nccnc1S2 (as salt: oxalate) | 97 to 104 °C (dec.) |  |  | 
COC(=O)c1ccc(-c2cn(Cc3ccc4c(c3)Nc3nccnc3S4)cn2)cc1 (as salt: trifluoroacetate) | 161 to 162 °C |  |  | 
Cl.O[C@@H]1CN(Cc2ccc3c(c2)Nc2nccnc2S3)C[C@H]1O (relative stereo) | 241 to 242 °C (dec.) |  |  | 
O=C(O)CC1CC2CN(Cc3ccc4c(c3)Nc3nccnc3S4)CC2C1 (stereo not shown) [711] | 112 to 117 °C |  |  | 
O=C(O)CC1CC2CN(Cc3ccc4c(c3)Nc3nccnc3S4)CC2C1 (stereo not shown) [714] | 110 to 115 °C |  |  | 
CC(C)(CCCN1CCN(Cc2ccc3c(c2)Nc2nccnc2S3)CC1)C(=O)O [750] | 240 to 242 °C |  |  | 
CC(C)(CCCN1CCN(Cc2ccc3c(c2)Nc2nccnc2S3)CC1)C(=O)O [751] | > 275 °C |  |  | 
O=C(O)CC1C2CCCC1CN(Cc1ccc3c(c1)Nc1nccnc1S3)C2 (stereo not drawn) [Example 15, (syn)-[3-(10H-Pyrazino[2,3-b][1,4]benzothiazin-8-ylmethyl)-3-azabicyclo[3.3.1]non-9-yl]acetic acid] |  | 64% |  | IC50 ([1]; 4 hours): 2300 nM
CCOC(=O)CC1C2CCCC1CN(Cc1ccc3c(c1)Nc1nccnc1S3)C2 (stereo not shown) [Example 17] | 142 to 143 °C |  |  | 
O=C(O)CC1C2CCCC1CN(Cc1ccc3c(c1)Nc1nccnc1S3)C2 (stereo not drawn) [Example 18, (anti)-[3-(10H-Pyrazino[2,3-b][1,4]benzothiazin-8-ylmethyl)-3-azabicyclo[3.3.1]non-9-yl]acetic acid] |  |  |  | IC50 ([1]; 4 hours): 3500 nM; Inhibitory ratio (%) [2]: 67%
CC1C(C)C2CN(Cc3ccc4c(c3)Nc3nccnc3S4)CC1C2CC(=O)O (stereo not drawn) [Example 23, (+)-(anti)-(6R*,7R*)-[3-(10H-Pyrazino[2,3-b][1,4]benzothiazin-8-ylmethyl)-6,7-dimethyl-3-azabicyclo[3.2.1]oct-8-yl]acetic acid] |  | 52% |  | IC50 ([1]; 4 hours): 1600 nM
CC1C(C)C2CN(Cc3ccc4c(c3)Nc3nccnc3S4)CC1C2CC(=O)O (stereo not drawn) [Example 24, (−)-(anti)-(6R*,7R*)-[3-(10H-Pyrazino[2,3-b][1,4]benzothiazin-8-ylmethyl)-6,7-dimethyl-3-azabicyclo[3.2.1]oct-8-yl]acetic acid] |  |  |  | IC50 ([1]; 4 hours): 4100 nM; Inhibitory ratio (%) [2]: 54%
CC1CC(C)C2CN(Cc3ccc4c(c3)Nc3nccnc3S4)CC1C2C(C)C(=O)O (stereo not drawn) [Example 30, (+)-(anti)-(6R*,8R*)-2-[3-(10H-pyrazino[2,3-b][1,4]benzothiazin-8-ylmethyl)-6,8-dimethyl-3-azabicyclo[3.3.1]non-9-yl]propanoic acid] |  |  |  | IC50 ([1]; 4 hours): 500 nM; Inhibitory ratio (%) [2]: 85%
CC1CC(C)C2CN(Cc3ccc4c(c3)Nc3nccnc3S4)CC1C2C(C)C(=O)O (stereo not drawn) [Example 31, (−)-(anti)-(6R*,8R*)-2-[3-(10H-pyrazino[2,3-b][1,4]benzothiazin-8-ylmethyl)-6,8-dimethyl-3-azabicyclo[3.3.1]non-9-yl]propanoic acid] |  |  |  | IC50 ([1]; 4 hours): 1100 nM; Inhibitory ratio (%) [2]: 38%
O=C(O)C=C1C2CCC1CN(Cc1ccc3c(c1)Nc1nccnc1S3)C2 [Example 70] | 268 to 271 °C |  | 2800 nM | 
O=C(O)CC1C2CCC1CN(Cc1ccc3c(c1)Nc1nccnc1S3)C2 (stereo not shown) [Example 71] |  | 94% | 800 nM | 
O=C(O)C1C2CCC1CN(Cc1ccc3c(c1)Nc1nccnc1S3)C2 (stereo not shown) [Example 73] |  | 74% | 600 nM | 
O=C(O)C1C2CCCC1CN(Cc1ccc3c(c1)Nc1nccnc1S3)C2 (stereo not shown) [Example 74] | 272 to 275 °C |  | 1900 nM | 
CC(C)(C)C1CC2CN(Cc3ccc4c(c3)Nc3nccnc3S4)CC(C1)C2CC(=O)O (stereo not shown) [Example 77] | 138 to 140 °C |  | 2800 nM | 
CC1CC2CN(Cc3ccc4c(c3)Nc3nccnc3S4)CC(C1)C2CC(=O)O (stereo not shown) [Example 78] | 142 to 146 °C |  |  | 
CC1CC(C)C2CN(Cc3ccc4c(c3)Nc3nccnc3S4)CC1C2CC(=O)O (stereo not shown) [Example 79] |  | 44% |  | 
O=C(O)CC1C2CCCCC1CN(Cc1ccc3c(c1)Nc1nccnc1S3)C2 (stereo not shown) [Example 80] | 217 to 218 °C |  | 4100 nM | 
CC(C(=O)O)C1C2CCCC1CN(Cc1ccc3c(c1)Nc1nccnc1S3)C2 (stereo not shown) [Example 82] |  |  | 3400 nM | 
CC(C(=O)O)C1C2CCCC1CN(Cc1ccc3c(c1)Nc1nccnc1S3)C2 (stereo not shown) [Example 83] |  | 34% |  | IC50 ([1]; 4 hours): 2800 nM
O=C(O)CC1C2CN(Cc3ccc4c(c3)Nc3nccnc3S4)CC1C21CCC1 (stereo not shown) [Example 85] | 175 to 180 °C |  | 6400 nM | 

Structure (SMILES) | melting point | inhibition in vivo at 10 mg/kg [2] | IC50 [1, 3] | also measured
O=C(O)CC1C2CN(Cc3ccc4c(c3)Nc3nccnc3S4)CC1C21CCC1 (stereo not shown) [Example 86] | 90 to 92 °C |  |  | 
O=C(O)CC1C2CC(c3ccccc3)CC1CN(Cc1ccc3c(c1)Nc1nccnc1S3)C2 (stereo not shown) [Example 87] | 128 to 131 °C |  | 2900 nM | 
CC1C(C)C2CN(Cc3ccc4c(c3)Nc3nccnc3S4)CC1C2CC(=O)O (stereo not shown) [Example 89] |  | 83% | 2800 nM | 
O=C(O)C12CCCC(CN(Cc3ccc4c(c3)Nc3nccnc3S4)C1)C2 (stereo not shown) [Example 90] | 186 to 188 °C |  | 2800 nM | 
CC1CCC2CN(Cc3ccc4c(c3)Nc3nccnc3S4)CC1C2CC(=O)O (stereo not shown) [Example 91] |  | 76% | 2900 nM | 
O=C(O)C1CC2CC(C1)CN(Cc1ccc3c(c1)Nc1nccnc1S3)C2 (stereo not shown) [Example 98] |  | 30% | 2400 nM | 
CC(CCC1C2CN(Cc3ccc4c(c3)Nc3nccnc3S4)CC1C(C)CC2C)C(=O)O (stereo not shown) [Example 100] | 110 to 115 °C |  | 3800 nM | 
CC1CC(C)C2CN(Cc3ccc4c(c3)Nc3nccnc3S4)CC1C2CCC(=O)O (stereo not shown) [Example 101] |  | 48% | 2600 nM | 
CC1CC(C)C2CN(Cc3ccc4c(c3)Nc3nccnc3S4)CC1C2CCCC(=O)O (stereo not shown) [Example 102] | 98 to 105 °C |  | 2600 nM | 
COC1(CC(=O)O)C2CCCC1CN(Cc1ccc3c(c1)Nc1nccnc1S3)C2 (stereo not shown) [Example 103] | 217 to 219 °C |  | 6600 nM | 
O=C(O)CC12CCCC(CN(Cc3ccc4c(c3)Nc3nccnc3S4)C1)C2 (stereo not shown) [Example 104] | 215 to 217 °C |  | 2800 nM | 
COC1(CC(=O)O)C2CCCC1CN(Cc1ccc3c(c1)Nc1nccnc1S3)C2 (stereo not shown) [Example 105] | 225 to 228 °C |  |  | IC50 ([1]; 4 hours): 5800 nM
O=C(O)C1CC2CC3CN(Cc4ccc5c(c4)Nc4nccnc4S5)CC(C2)C31 (stereo not shown) [Example 106] |  | 46% | 2800 nM | 
CC1(C(=O)O)C2CCCC1CN(Cc1ccc3c(c1)Nc1nccnc1S3)C2 (stereo not shown) [Example 113] | 264 to 265 °C |  | 2500 nM | 
CC1(C(=O)O)C2CCCC1CN(Cc1ccc3c(c1)Nc1nccnc1S3)C2 (stereo not shown) [Example 116] | 183 to 185 °C |  |  | 
O=C(O)C=C1CC2CCC(C1)N2Cc1ccc2c(c1)Nc1nccnc1S2 [Example 118] | 206 to 208 °C |  | 1600 nM | 
O=C(O)c1ccc(OCCC2C3CCCC2CN(Cc2ccc4c(c2)Nc2nccnc2S4)C3)cc1 (stereo not shown) [Example 121] |  | 70% | 7400 nM | 
OC1C2CCCC1CN(Cc1ccc3c(c1)Nc1nccnc1S3)C2 (stereo not shown) [Example 126] | 215 to 219 °C |  |  | 
OC1C2CCCC1CN(Cc1ccc3c(c1)Nc1nccnc1S3)C2 (stereo not shown) [Example 127] | 189 to 192 °C |  |  | 
CS(=O)(=O)NC1CCN(Cc2ccc3c(c2)Nc2nccnc2S3)CC1 [Example 402] |  | 57% | 320 nM | 
CNS(=O)(=O)NC1CCN(Cc2ccc3c(c2)Nc2nccnc2S3)CC1 [Example 403] |  | 35% | 340 nM | 
CN(C)S(=O)(=O)NC1CCN(Cc2ccc3c(c2)Nc2nccnc2S3)CC1 [Example 460] |  | 57% | 320 nM | 
O=C(O)Cc1ccc(C2CCN(Cc3ccc4c(c3)Nc3nccnc3S4)CC2)cc1 [Example 659] |  | 20% | 710 nM | 
O=C(O)CC1CC2(CCN(Cc3ccc4c(c3)Nc3nccnc3S4)CC2)C1 [Example 677] |  | 76% | 900 nM | 
CNc1ncnc2c1ncn2Cc1ccc2c(c1)Nc1nccnc1S2 [Example 1409] | 279 to 281 °C |  | 670 nM | 
